Source: ChEMBL document CHEMBL2062419, “Synthesis and antiviral activities of hexadecyloxypropyl prodrugs of acyclic nucleoside phosphonates containing guanine or hypoxanthine and a (S)-HPMP or PEE acyclic moiety” (Eur J Med Chem, 2012)
Calls of active or inactive are those of the source. No cut-off for these calls is given here.

Legend:
[1] = tested on: Coxsackievirus B4; experiment: Antiviral activity against Human coxsackievirus B4 by viral CPE assay; assay type: functional, organism-based
[2] = tested on: Human alphaherpesvirus 2; experiment: Antiviral activity against HSV2 G infected in HEL cells by viral CPE assay; assay type: functional, organism-based; conditions: Human alphaherpesvirus 2, strain G
[3] = tested on: Human immunodeficiency virus 2; experiment: Antiviral activity against HIV2 ROD infected in human CEM cells assessed as reduction in virus-induced CEM giant cell formation incubated for 4 days at 37 degC by microscopy; assay type: functional, organism-based; conditions: ISOLATE ROD, CCRF-CEM
[4] = tested on: HEL; experiment: Cytotoxicity against HEL cells assessed as effect on cell growth incubated for 3 days by Coulter counter assay; assay type: cell-based; conditions: human, 72 h
[5] = tested on: Punta Toro virus; experiment: Antiviral activity against Punta Toro virus by viral CPE assay; assay type: functional, organism-based
[6] = tested on: Mammalian orthoreovirus 1; experiment: Antiviral activity against Reovirus 1 by viral CPE assay; assay type: functional, organism-based
[7] = tested on: Human immunodeficiency virus 1; experiment: Antiviral activity against HIV1 3B infected in human CEM cells assessed as reduction in virus-induced CEM giant cell formation incubated for 4 days at 37 degC by microscopy; assay type: functional, organism-based; conditions: CCRF-CEM
[8] = tested on: Human alphaherpesvirus 3; experiment: Antiviral activity against thymidine kinase positive VZV OKa infected in HEL cells by plaque formation assay; assay type: functional, cell-based, Human herpesvirus 3 strain Oka vaccine; conditions: Human alphaherpesvirus 3, OKa
[9] = tested on: Human betaherpesvirus 5; experiment: Antiviral activity against HCMV Davis infected in HEL cells by viral CPE assay; assay type: functional, organism-based; conditions: Human betaherpesvirus 5, Davis
[10] = tested on: Felid alphaherpesvirus 1; experiment: Antiviral activity against Feline herpesvirus infected in CRFK cells by viral CPE assay; assay type: functional, organism-based; conditions: Felid alphaherpesvirus 1, CRFK
[11] = Cytotoxicity against HEL cells assessed as effect on cell morphology incubated for 3 days by microscopy; assay type: cell-based; conditions: human
[12] = tested on: Human alphaherpesvirus 1; experiment: Antiviral activity against thymidine kinase negative and ACV resistant HSV1 KOS infected in HEL cells by viral CPE assay; assay type: functional, organism-based; conditions: Human alphaherpesvirus 1, KOS
[13] = tested on: Human alphaherpesvirus 1; experiment: Antiviral activity against HSV1 KOS infected in HEL cells by viral CPE assay; assay type: functional, organism-based; conditions: Human alphaherpesvirus 1, KOS
[14] = tested on: Respiratory syncytial virus; experiment: Antiviral activity against Respiratory syncytial virus Long by viral CPE assay; assay type: functional, organism-based
[15] = tested on: Vesicular stomatitis virus; experiment: Antiviral activity against VSV by viral CPE assay; assay type: functional, organism-based
[16] = tested on: Human respirovirus 3; experiment: Antiviral activity against Human parainfluenza virus 3 by viral CPE assay; assay type: functional, organism-based
[17] = tested on: Vaccinia virus; experiment: Antiviral activity against Vaccinia virus Lederie infected in HEL cells by viral CPE assay; assay type: functional, organism-based; conditions: Orthopoxvirus vaccinia
[18] = tested on: Sindbis virus; experiment: Antiviral activity against Sindbis virus by viral CPE assay; assay type: functional, organism-based
[19] = tested on: Human betaherpesvirus 5; experiment: Antiviral activity against HCMV AD169 infected in HEL cells by viral CPE assay; assay type: functional, organism-based; conditions: Human betaherpesvirus 5, AD169, HEL
[20] = tested on: Human alphaherpesvirus 3; experiment: Antiviral activity against thymidine kinase negative VZV 07/01 infected in HEL cells by plaque formation assay; assay type: functional, organism-based; conditions: Human alphaherpesvirus 3, 07/01, HEL
[21] = Selectivity index, ratio of cytotoxic CC50 for HEL cells to EC50 for HSV1 KOS
[22] = Selectivity index, ratio of cytotoxic CC50 for HEL cells to EC50 for HCMV Davis
[23] = Selectivity index, ratio of cytotoxic CC50 for HEL cells to EC50 for VZV Oka
[24] = Selectivity index, ratio of cytotoxic CC50 for HEL cells to EC50 for HCMV AD169
[25] = Selectivity index, ratio of cytotoxic CC50 for HEL cells to EC50 for VZV 07/01
[26] = Selectivity index, ratio of cytotoxic CC50 for HEL cells to EC50 for Vaccinia virus Lederie; assay type: toxicity, cell-based; conditions: human, read-out: Ratio CC50/EC50
[27] = Selectivity index, ratio of cytotoxic CC50 for HEL cells to EC50 for HSV2 G
[28] = Selectivity index, ratio of cytotoxic CC50 for HEL cells to EC50 for VZV YS
[29] = tested on: Human alphaherpesvirus 3; experiment: Antiviral activity against thymidine kinase positive VZV YS infected in HEL cells by plaque formation assay; assay type: functional, organism-based; conditions: Human alphaherpesvirus 3, YS
[30] = Selectivity index, ratio of cytotoxic CC50 for HEL cells to EC50 for ACV resistant HSV1 KOS

Structure (SMILES)	Activity [1]	EC50 [2]	Activity [3]	CC50 [4]	Activity [5]	Activity [6]	Activity [7]	EC50 [8]	EC50 [9]	EC50 [10]	MCC at 72 h [11]	EC50 [12]	EC50 [13]	Activity [14]	Activity [15]	Activity [16]	EC50 [17]	Activity [18]	EC50 [19]	EC50 [20]	further results
CCCCCCCCCCCCCCCCOCCCOP(=O)(O)CO[C@H](CO)Cn1cnc2c(=O)[nH]cnc21	inactive	> 6.8 µM	inactive	66 µM	inactive	inactive	inactive	> 6.8 µM	15.2 µM	> 34 µM	≥ 34 µM	> 6.8 µM	> 6.8 µM	inactive	inactive	inactive	> 6.8 µM	inactive	> 34 µM	–	–
CCCCCCCCCCCCCCCCOCCCOP(=O)(CCOCCn1cnc2c(=O)[nH]cnc21)OCCCOCCCCCCCCCCCCCCCC	inactive	> 117 µM	inactive	117 µM	inactive	inactive	inactive	> 23.4 µM	> 23.4 µM	> 23.4 µM	≥ 117 µM	> 117 µM	> 117 µM	inactive	inactive	inactive	> 117 µM	inactive	> 23.4 µM	> 23.4 µM	–
CCCCCCCCCCCCCCCCOCCCOP1(=O)CO[C@@H](Cn2cnc3c(=O)[nH]cnc32)CO1 (mixture of isomers)	inactive	> 7 µM	inactive	> 176 µM	inactive	inactive	inactive	> 1.4 µM	> 7 µM	> 176 µM	≥ 7 µM	> 7 µM	> 7 µM	inactive	inactive	inactive	> 7 µM	inactive	> 7 µM	> 1.4 µM	–
CCCCCCCCCCCCCCCCOCCCOP(=O)(O)CCOCCn1cnc2c(=O)[nH]cnc21	inactive	> 35 µM	inactive	78 µM	inactive	inactive	inactive	> 35 µM	> 35 µM	> 35 µM	175 µM	> 35 µM	> 35 µM	inactive	inactive	inactive	> 35 µM	inactive	> 35 µM	> 35 µM	–
CCCCCCCCCCCCCCCCOCCCOP(=O)(CCOCCn1cnc2c(=O)[nH]c(N)nc21)OCCCOCCCCCCCCCCCCCCCC	inactive	> 115 µM	inactive	> 115 µM	inactive	inactive	inactive	> 23 µM	> 23 µM	> 115 µM	≥ 23 µM	> 115 µM	> 115 µM	inactive	inactive	inactive	> 115 µM	inactive	> 23 µM	> 23 µM	–
CCCCCCCCCCCCCCCCOCCCOP(=O)(O)CO[C@H](CO)Cn1cnc2c(=O)[nH]c(N)nc21	inactive	0.007 µM	inactive	0.72 µM	inactive	inactive	inactive	0.002 µM	0.0022 µM	> 1.33 µM	≥ 1.3 µM	0.012 µM	0.008 µM	inactive	inactive	inactive	0.011 µM	inactive	0.0066 µM	0.0017 µM	Ratio CC50/EC50 [21]: 90; Ratio CC50/EC50 [22]: 327; Ratio CC50/EC50 [23]: 360; Ratio CC50/EC50 [24]: 109; Ratio CC50/EC50 [25]: 423; selectivity ratio [26]: 65; Ratio CC50/EC50 [27]: 103; Ratio CC50/EC50 [28]: 288; EC50 [29]: 0.0025 µM; Ratio CC50/EC50 [30]: 60
Nc1nc(O)c2ncn(COC(CO)CO)c2n1 [GANCICLOVIR]	–	0.029 µM	–	231 µM	–	–	–	–	–	1.15 µM	> 394 µM	–	–	–	–	–	≥ 93 µM	–	–	–	–
CCCCCCCCCCCCCCCCOCCCOP(=O)(CO[C@H](CO)Cn1cnc2c(=O)[nH]cnc21)OCCCOCCCCCCCCCCCCCCCC	inactive	> 115 µM	inactive	> 115 µM	inactive	inactive	inactive	> 23 µM	> 23 µM	> 115 µM	≥ 23 µM	> 115 µM	> 115 µM	inactive	inactive	inactive	> 115 µM	inactive	> 23 µM	> 4.6 µM	–
Nc1ccn(C[C@@H](CO)OCP(=O)(O)O)c(=O)n1 [CIDOFOVIR]	–	–	–	241 µM	–	–	–	–	–	–	> 317 µM	1.75 µM	0.93 µM	–	–	–	14 µM	–	1.37 µM	–	–
Nc1nc2c(ncn2COCCO)c(=O)[nH]1 [ACYCLOVIR]	–	0.38 µM	–	918 µM	–	–	–	–	–	–	> 444 µM	≥ 212 µM	0.53 µM	–	–	–	> 1000 µM	–	–	–	–
